Drawing on US5225528A, “Cyclic hexapeptide oxytocin antagonists” (priority 1990, dated 1993), this text covers IC50 and inhibition for 16 compounds.

Read-outs that look alike come from different tables or passages of the source. Numbered stars: 1 amine (or outer) side, 2 acyl side, 3 side chain; on linkers, the order of the positions; unused ones are H or OH. Square brackets hold non-standard residues; d marks the D form. Peptide text beside a SMILES is read from it. * marks the point of attachment. dPip(4-aza,4-Cbz) = O=C(O)[C@H]1CN(C(=O)OCc2ccccc2)CCN1; X5 = CC(C)(C)OC(=O)CN1CCN([*:1])[C@H](C(=O)[*:2])C1; dPhe(4-NO2) = N[C@H](Cc1ccc([N+](=O)[O-])cc1)C(=O)O; dPiz(1,6-dehydro) = O=C(O)[C@H]1CCC=NN1; d2Nal = N[C@H](Cc1ccc2ccccc2c1)C(=O)O; X6 = O=C([C@H]1CCCNN1[*:1])[*:2]; dNMeF = CN[C@H](Cc1ccccc1)C(=O)O; hPhe = N[C@@H](CCc1ccccc1)C(=O)O; X7 = C[N+]12CCC(CC1)C(C(=O)*)C2; Pip = O=C(O)[C@@H]1CCCCN1; dPip = O=C(O)[C@H]1CCCCN1; Nle = CCCC[C@H](N)C(=O)O; Orn = NCCC[C@H](N)C(=O)O; Cbz = O=C(OCc1ccccc1)*; Boc = CC(C)(C)OC(=O)*

Test [1] deals with T1, AVP-V2 sites (Rattus norvegicus, UniProt Q00788).
T1 construct: male rat liver (AVP-V1 sites) or kidney medulla (AVP-V2 sites); from tissue; host or cells: male rat kidney medulla, crude membranes
In words: [^3 H]AVP binding to crude membrane preparation of male rat kidney medulla (AVP-V2 sites). How it is done: (§1) Nonspecific binding (5-10% of the total binding) was determined using 10 μM unlabeled AVP, and the binding reaction was terminated by filtration as described above for the [^3 H]OT binding assay.

For test [2], the target named is T2, uterine OT receptors (Rattus norvegicus, UniProt P70536).
T2 construct: from tissue; host or cells: uterus of DES-treated rats, crude membranes
T2 sequence (P70536 1-388): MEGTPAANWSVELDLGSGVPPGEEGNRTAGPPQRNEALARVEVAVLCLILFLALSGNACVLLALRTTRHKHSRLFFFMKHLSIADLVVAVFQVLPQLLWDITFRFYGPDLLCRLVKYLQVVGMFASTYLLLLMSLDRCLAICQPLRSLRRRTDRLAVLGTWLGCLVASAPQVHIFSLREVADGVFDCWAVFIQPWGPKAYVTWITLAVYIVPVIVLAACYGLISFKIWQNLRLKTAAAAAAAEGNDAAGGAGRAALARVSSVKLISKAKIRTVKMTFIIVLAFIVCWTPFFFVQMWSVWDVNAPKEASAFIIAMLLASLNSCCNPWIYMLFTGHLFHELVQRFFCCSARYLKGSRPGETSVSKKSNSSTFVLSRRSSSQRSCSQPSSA
Put plainly: [^3 H]OT binding to uterine OT receptors, crude membrane preparation of uteri from DES-treated rats. Conditions: for IC50: rat uterus membranes, 1 nM [^3 H]OT, read-out: Receptor Binding Results IC50 (nM) [^3 H]OT; for inhibition at 0.1 µM: 1 h, @ 100 (nM), read-out: [^3 H]OT: percent inhibition of radioligand at the given concentration. How it is done: Competition studies were conducted at equilibrium (60 minutes; 22° C.) using 1 nM [^3 H]OT in the following assay buffer: 50 mM Tris-HCl, 5 mM MgCl2, and 0.1% BSA, pH 7.4.

In test [3] the target is T3, AVP-V1 sites (Rattus norvegicus, UniProt P30560).
T3 construct: crude membrane preparation of male rat liver (AVP-V1 sites); from tissue; host or cells: male rat liver, crude membranes
In words: [^3 H]AVP binding to crude membrane preparation of male rat liver (AVP-V1 sites). How it is done:
as §1

Where [4] appears, read: Receptor Binding Results IC50 (nM) [^3 H]-AVP-V2.
Setting [5] is: Receptor Binding Results IC50 (nM) [^3 H]-AVP-V1.
[6] abbreviates: rat kidney medulla membranes, 2 nM [^3 H]AVP, read-out: Receptor Binding Results IC50 (nM) [^3 H]-AVP-V2.
The mark [7] stands for this setting: read-out: Receptor Binding Results IC50 (nM) [^3 H]-AVP-V2.
[8] abbreviates: read-out: Receptor Binding Results IC50 (nM) [^3 H]-AVP-V1.

T1 sequence (Q00788 whole entry): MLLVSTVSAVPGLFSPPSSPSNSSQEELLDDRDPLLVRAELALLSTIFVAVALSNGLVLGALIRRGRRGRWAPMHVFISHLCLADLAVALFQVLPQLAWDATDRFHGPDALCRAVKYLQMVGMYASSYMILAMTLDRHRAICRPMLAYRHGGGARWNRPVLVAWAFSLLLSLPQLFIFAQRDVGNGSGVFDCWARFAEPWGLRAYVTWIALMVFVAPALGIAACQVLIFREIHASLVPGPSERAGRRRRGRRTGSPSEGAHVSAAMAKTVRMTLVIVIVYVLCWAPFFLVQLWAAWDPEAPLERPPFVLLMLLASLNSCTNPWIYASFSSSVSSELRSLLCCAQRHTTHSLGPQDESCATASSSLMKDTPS
T3 sequence (P30560 whole entry): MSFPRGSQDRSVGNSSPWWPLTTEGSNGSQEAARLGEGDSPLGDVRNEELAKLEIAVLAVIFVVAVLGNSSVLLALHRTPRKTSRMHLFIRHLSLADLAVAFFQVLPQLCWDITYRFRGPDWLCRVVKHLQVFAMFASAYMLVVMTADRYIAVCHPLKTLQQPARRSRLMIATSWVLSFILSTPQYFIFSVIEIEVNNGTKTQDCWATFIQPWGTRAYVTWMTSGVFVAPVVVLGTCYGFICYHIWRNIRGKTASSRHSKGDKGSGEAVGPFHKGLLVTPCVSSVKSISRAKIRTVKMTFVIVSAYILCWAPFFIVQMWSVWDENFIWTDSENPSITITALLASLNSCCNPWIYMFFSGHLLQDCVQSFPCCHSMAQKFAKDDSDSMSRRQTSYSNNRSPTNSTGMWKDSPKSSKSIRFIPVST

In the case of `CC[C@H](C)[C@@H]1NC(=O)[C@@H](Cc2c[nH]c3ccccc23)NC(=O)[C@@H]2CCCN2C(=O)[C@@H](Cc2ccccc2)N(C)C(=O)[C@H]2CN(C(=O)OCc3ccccc3)CCN2C(=O)[C@H]2CCCCN2C1=O` [Example 91, c-[D-Tryptophanyl-L-isoleucinyl-D-pipecolyl-D-piperazin-2-yl(4-Cbz)-D-(N^α -methyl)phenylalanyl-L-prolyl]] (cyclo(I[dPip][dPip(4-aza,4-Cbz)][dNMeF]P[dW])), the IC50 (commonly the concentration that inhibits the measured activity by half) in test [1] (setting [4]) is more than 1000 nM; in test [2] it was 93 nM; in test [3] (setting [5]), more than 10000 nM.
`CC[C@H](C)[C@@H]1NC(=O)[C@@H](Cc2c[nH]c3ccccc23)NC(=O)[C@@H]2CCCN2C(=O)[C@@H](Cc2c[nH]cn2)NC(=O)[C@H](CCCCNC(=O)OCc2ccccc2)NC(=O)[C@H]2CCCCN2C1=O` [Example 38, Cyclo[D-tryptophanyl-L-isoleucyl-D-pipecolyl-L-(carbobenzyloxy)lysyl-D-histidyl-L-prolyl]] (cyclo(I[dPip]K(Cbz)[dH]P[dW])): the IC50 was 10000 nM in test [1] (setting [6]) and more than 1000 nM in test [3] (setting [5]). The inhibition at 0.1 µM in test [2] is 60%.
For `CN1C(=O)[C@@H]2CCCCN2C(=O)[C@H]2CCCCN2C(=O)[C@H](CCc2ccccc2)NC(=O)[C@@H](Cc2c[nH]c3ccccc23)NC(=O)[C@@H]2CCCN2C(=O)[C@H]1Cc1ccccc1` [Example 133, c-[D-Tryptophanyl-L-homophenylalanyl-D-pipecolyl-L-pipecolyl-D-(N-methyl)phenylalanyl-prolyl]] (cyclo(P[dW][hPhe][dPip][Pip][dNMeF])), the results for the IC50 in test [1] (setting [6]), in test [2] and in test [3] (setting [5]) were 10000 nM, 3600 nM and 10000 nM, respectively.
As for `CCCC[C@@H]1NC(=O)[C@@H](Cc2c[nH]c3ccccc23)NC(=O)[C@@H]2CCCN2C(=O)[C@@H](Cc2c[nH]cn2)NC(=O)[C@@H]2CCCCN2C(=O)[C@H]2CCCCN2C1=O` [Example 20, Cyclo[D-tryptophanyl-L-Norleucyl-D-pipecolyl-L-pipecolyl-D-histidyl-L-prolyl]] (cyclo([Nle][dPip][Pip][dH]P[dW])), the IC50 is more than 1000 nM in test [1] (setting [4]), 72 nM in test [2] and more than 1000 nM in test [3] (setting [5]).
For the compound `CC[C@H](C)[C@@H]1NC(=O)[C@@H](Cc2c[nH]c3ccccc23)NC(=O)[C@@H]2CCCN2C(=O)[C@@H](Cc2c[nH]c3ccccc23)NC(=O)[C@@H]2CN(CC(=O)OC(C)(C)C)CCN2C(=O)[C@H]2CCCCN2C1=O` [Example 162, c-[D-Tryptophanyl-L-isoleucinyl-D-pipecolyl-L-piperazin-2-yl(4-t-butylacetyl)-D-tryptophanyl-L-prolyl]] (cyclo([dW]I[dPip][X5][dW]P)), the IC50 is 10000 nM in test [1] (setting [6]) and more than 10000 nM in test [3] (setting [5]). Also, the inhibition at 0.1 µM in test [2] was found to be 54%.
As for `CC[C@H](C)[C@@H]1NC(=O)[C@@H](Cc2ccccc2)NC(=O)[C@@H]2CCCN2C(=O)[C@@H](Cc2ccc([N+](=O)[O-])cc2)NC(=O)[C@@H]2CCCCN2C(=O)[C@H]2CCCCN2C1=O` [Example 47, Cyclo[D-phenylalanyl-L-isoleucyl-D-pipecolyl-L-pipecolyl-D(p-nitro)phenylalanyl-L-prolyl]] (cyclo(I[dPip][Pip][dPhe(4-NO2)]P[dF])), the half-inhibitory concentration (IC50) is 10000 nM in test [1] (setting [6]), 620 nM in test [2] and more than 1000 nM in test [3] (setting [5]).
Take `CC[C@H](C)[C@@H]1NC(=O)[C@@H](Cc2ccc(OC)cc2)NC(=O)[C@@H]2CCCN2C(=O)[C@@H](Cc2ccccc2)N(C)C(=O)[C@H](CCCCN)NC(=O)[C@H]2CCCCN2C1=O` [Example 150, c-[D-(O-Methyl)Tyrosyl-L-isoleucyl-D-pipecolyl-L-lysyl-D-(N-methyl)phenylalanyl-L-prolyl]] (cyclo(I[dPip]K[dNMeF]P[dY](Me))): the inhibition at 1 µM in test [1] (0.5 h, @ 1,000 (nM), read-out: [^3 H]-AVP-V2: percent inhibition of radioligand at the given concentration) is 62%. Also, the figures for the IC50 in test [2] and in test [3] (setting [5]) were 44 nM and 10000 nM, respectively.
As to `C[C@@H]1NC(=O)[C@@H](Cc2ccccc2)NC(=O)[C@@H]2CCCN2C(=O)[C@@H](Cc2ccccc2)N(C)C(=O)[C@@H]2CCCCN2C(=O)[C@H]2CCCCN2C1=O` [Example 9, Cyclo[D-phenylalanyl-L-alanyl-D-pipecolyl-L-pipecolyl-D-(N^α methyl)phenylalanyl-L-prolyl]] (cyclo(A[dPip][Pip][dNMeF]P[dF])), the IC50 in test [1] (setting [6]), in test [2] and in test [3] (setting [5]) was more than 10000 nM throughout.
As to `CC[C@H](C)[C@@H]1NC(=O)[C@@H](Cc2ccccc2)NC(=O)[C@@H]2CCCN2C(=O)[C@@H](Cc2ccccc2)N(C)C(=O)[C@@H]2CCCCN2C(=O)[C@H]2CCCNN2C1=O` [Example 111, c-[D-Phenylalanyl-L-isoleucyl-D-piperazyl-L-pipecolyl-N-methyl-D-phenylalanyl-L-prolyl]] (cyclo(I[X6][Pip][dNMeF]P[dF])), the figures for the concentration for half-maximal inhibition (IC50) in test [1] (setting [7]), in test [2] and in test [3] (setting [8]) were 3500 nM, 111 nM and 4200 nM, respectively.
`CC[C@H](C)[C@@H]1NC(=O)[C@@H](Cc2ccc3ccccc3c2)NC(=O)[C@@H]2CCCN2C(=O)[C@@H](Cc2ccccc2)N(C)C(=O)[C@H](CCCCNC(=O)C2C[N+]3(C)CCC2CC3)NC(=O)[C@H]2CCCCN2C1=O` (stereo partly drawn) [Example 151, c-[D-2-Napthylalanyl-L-isoleucyl-D-pipecolyl-L-[N-(1-methyl-quinuclidinium-3-yl-carbonyl)]lysyl-D-(N-methyl)phenylalanyl-L-prolyl]] (cyclo(I[dPip]K(X7)[dNMeF]P[d2Nal])): the IC50 in test [1] was 82 nM; in test [2], 10 nM; in test [3] (setting [8]) it was 390 nM.
For the compound `CC[C@H](C)[C@@H]1NC(=O)[C@@H](Cc2ccccc2)NC(=O)[C@@H]2CCCN2C(=O)[C@@H](Cc2ccccc2)N(C)C(=O)[C@H](CCCNC(=O)OC(C)(C)C)NC(=O)[C@H]2CCC=NN2C1=O` [Example 124, c-[D-Phenylalanyl-L-isoleucyl-D-Δ-piperazyl(N^δ -Boc)-L-orinthyl-N-methyl-D-δ-phenyl-alaninyl-L-prolyl]] (cyclo(I[dPiz(1,6-dehydro)][Orn](Boc)[dNMeF]P[dF])), the IC50 in test [1] (setting [7]) is 3600 nM; in test [2], 17.5 nM; in test [3] (setting [8]), 2700 nM.
As to `CC[C@H](C)[C@@H]1NC(=O)[C@@H](C)NC(=O)[C@@H]2CCCN2C(=O)[C@@H](Cc2ccccc2)NC(=O)[C@@H]2CCCCN2C(=O)[C@H]2CCCCN2C1=O` [Example 2, Cylco[D-alanyl-L-isoleucyl-D-pipecolyl-L-pipecolyl-D-phenylalanyl-L-prolyl]] (cyclo(I[dPip][Pip][dF]P[dA])), the IC50 in test [1] (setting [6]), in test [2] and in test [3] (setting [5]) was more than 10000 nM in each case.
Turning to `CC[C@H](C)[C@@H]1NC(=O)[C@@H](Cc2ccccc2)NC(=O)[C@@H]2CCCN2C(=O)[C@@H](Cc2ccccc2)N(C)C(=O)[C@H](CO)NC(=O)[C@H]2CCCN2C1=O` [Example 114, c-[D-Phenylalanyl-L-isoleucyl-D-prolyl-L-seryl-N-methyl-D-phenylalanyl-L-prolyl]] (cyclo(I[dP]S[dNMeF]P[dF])), the IC50 in test [1] (setting [6]) is more than 10000 nM; in test [2], 675 nM; in test [3] (setting [5]), more than 10000 nM.
For the compound `CC[C@H](C)[C@@H]1NC(=O)[C@@H](Cc2c[nH]c3ccccc23)NC(=O)[C@@H]2CCCN2C(=O)[C@@H](Cc2ccccc2)N(C)C(=O)[C@@H]2CCCCN2C(=O)[C@H]2CCCCN2C1=O` [Example 30, Cyclo[D-tryptophanyl-L-isoleucyl-D-pipecolyl-L-pipecolyl-D(N^α methyl)phenylalanyl-L-prolyl]] (cyclo(I[dPip][Pip][dNMeF]P[dW])), the IC50 in test [1] (setting [7]) worked out at 747 nM; in test [2] it was 20 nM; in test [3] (setting [8]), 12000 nM.
For `CC[C@H](C)[C@@H]1NC(=O)[C@@H](Cc2c[nH]c3ccccc23)NC(=O)[C@@H]2CCCN2C(=O)[C@@H](Cc2ccccc2)N(C)C(=O)[C@H](CCCNC(=O)OCc2ccccc2)NC(=O)[C@H]2CCCCN2C1=O` [Example 34, Cyclo[D-trytophanyl-L-isoleucyl-D-pipecolyl-L-(carbobenzyloxy)ornithyl-D-(N^α methyl)phenylalanyl-L-prolyl]] (cyclo(I[dPip][Orn](Cbz)[dNMeF]P[dW])), the values for the IC50 in test [1] (setting [6]), in test [2] and in test [3] (setting [5]) were 10000 nM, 100 nM and more than 1000 nM, respectively.
With “c-[D,L-3-(3-(5-Methyl)indolyl)alanyl-L-isoleucyl-D-pipecolyl-L-pipecolyl-D- histidyl-L-prolyl] [Example 154]”, the IC50 in test [1] (setting [6]) was determined as 7300 nM; in test [2], 680 nM; in test [3] (rat liver membranes, 1 nM [^3 H]AVP, read-out: Receptor Binding Results IC50 (nM) [^3 H]-AVP-V1), 13000 nM.
